Values after ≈ are worked out from the molar mass of the structure shown. Where a name gives a salt, the structure may show the parent alone.

This is an account of results in US4016159A, “Acylamino-cephem-carboxylic acids containing an amidino or guanidino group in the molecule” (Hoechst Aktiengesellschaft, priority 1973, dated 1977).

Holding throughout (assay type): cell-based
For assay [1], the system named is Streptococcus D. Kind of assay: Minimum inhibition concentration (MIC), Table 4. As to conditions: Germ: Streptococcus D; for MIC: Streptococcus, read-out: Minimum inhibition concentration (MIC). The source says:
(§1) Minimum inhibition concentration (MIC) in γ/ml

Assay [2] relates to Staphylococcus aureus 285. Kind of assay: Minimum inhibition concentration (MIC), Table 1. As to conditions: for MIC: Staphylococcus aureus, 285, Germ: Staphylococcus aureus 285, read-out: Minimum inhibition concentration (MIC); for Minimum inhibition concentration (MIC): Germ: Staphylococcus aureus 285.
Source text: as §1
Germ: Staphylococcus aureus 285

Assay [3] deals with Staphylococcus aureus SG 511. Kind of assay: Minimum inhibition concentration (MIC), Table 5. As to conditions: for MIC: Staphylococcus aureus, SG511, Germ: Staphylococcus aureus SG 511, read-out: Minimum inhibition concentration (MIC).
Source text: as §1
Germ: Staphylococcus aureus SG 511

Assay [4] has as its system Streptococcus pyogenes A. Description: Minimum inhibition concentration (MIC), Table 3. As to conditions: Germ: Streptococcus pyogenes A; for MIC: read-out: Minimum inhibition concentration MIC. The source says: Minimum inhibition concentration MIC in γ/ml
Germ: Streptococcus pyogenes A

For the compound `N=C(N)c1ccc(OCC(=O)NC2C(=O)N3C(C(=O)O)=C(CSc4nnc(-c5ccccc5)s4)CSC23)cc1` (stereo not shown) [Example 65, 3-[(5-phenyl-1,3,4-thiadiazole-2-yl)-thiomethyl]-7-(4-amidinophenoxyacetamido)-Δ 3-cephem-4-carboxylic acid], the MIC in assay [1] fell in the range of 10 to 50 µg/mL (≈ 17.2 to 85.8 µM); in assay [2] it was 0.156 to 0.391 µg/mL (≈ 0.268 to 0.671 µM); in assay [3], 0.0196 to 0.0391 µg/mL (≈ 0.0336 to 0.0671 µM); in assay [4], 0.000391 to 0.0078 µg/mL (≈ 0.000671 to 0.0134 µM).

Consider `O=C(COc1ccc(C2=NCCCN2)cc1)NC1C(=O)N2C(C(=O)O)=C(CSc3nncs3)CSC12` (stereo not shown) [Example 62], for which the MIC in assay [1] was 10 to 50 µg/mL (≈ 18.3 to 91.5 µM); in assay [2], 0.5 to 1.25 µg/mL (≈ 0.915 to 2.29 µM); in assay [3] it was 0.0625 to 0.078 µg/mL (≈ 0.114 to 0.143 µM); in assay [4], 0.008 to 0.0156 µg/mL (≈ 0.0146 to 0.0285 µM).

For the compound `N=C(N)c1ccc(CC(=O)NC2C(=O)N3C(C(=O)O)=C(CSc4nc5ccccc5s4)CSC23)cc1` (stereo not shown) [Example 92, 3-[benzothiazole-2-yl-thiomethyl]-7-[4-amidino-phenylacetamido]-Δ 3-cephem-4-carboxylic acid], the MIC in assay [1] was 0.196 to 6.25 µg/mL (≈ 0.363 to 11.6 µM); in assay [2], 0.156 to 0.391 µg/mL (≈ 0.289 to 0.725 µM); in assay [3], 0.0625 to 0.078 µg/mL (≈ 0.116 to 0.145 µM); in assay [4] it was 0.000391 to 0.0078 µg/mL (≈ 0.000725 to 0.0145 µM).

As for `O=C(Cc1ccc(C2=NCCN2)cc1)NC1C(=O)N2C(C(=O)O)=C(CSc3nnc(-c4ccccc4)o3)CSC12` (stereo not shown) [Example 116, 3-[(5-phenyl-1,3,4-oxadiazole-2-yl)-thiomethyl]-7-[4-(imidazoline-2-yl)-phenylacetamido]-Δ3-cephem-4-carboxylic acid], the MIC in assay [1] fell in the range of 10 to 50 µg/mL (≈ 17.3 to 86.7 µM); in assay [2], 0.5 to 1.25 µg/mL (≈ 0.867 to 2.17 µM); in assay [3], 0.0625 to 0.078 µg/mL (≈ 0.108 to 0.135 µM); in assay [4] it was 0.000391 to 0.0078 µg/mL (≈ 0.000678 to 0.0135 µM).

With `O=C(COc1ccc(C2=NCCN2)cc1)NC1C(=O)N2C(C(=O)O)=C(CSc3nncs3)CSC12` (stereo not shown) [Example 73, 3-[(1,3,4-thiadiazole-2-yl)-thiomethyl]-7-[4-(imidazoline-2-yl)-phenoxyacetamido]-Δ 3-cephem-4-carboxylic acid], the MIC in assay [1] is 10 to 50 µg/mL (≈ 18.8 to 93.9 µM); in assay [2], 0.5 to 1.25 µg/mL (≈ 0.939 to 2.35 µM); in assay [3], 0.0625 to 0.078 µg/mL (≈ 0.117 to 0.146 µM); in assay [4] it was 0.000391 to 0.0078 µg/mL (≈ 0.000734 to 0.0146 µM).

For the compound `O=C(Cc1ccc(C2=NCCCN2)cc1)NC1C(=O)N2C(C(=O)O)=C(CSc3nnc(-c4ccccc4)o3)CSC12` (stereo not shown) [Example 103, 3-[(5-phenyl-1,3,4-oxadiazole-2-yl)-thiomethyl]-7-[4-(1,4,5,6-tetrahydropyrimide-2-yl)-phenylacetamido]-Δ3-cephem-4-carboxylic acid], the “Minimum inhibition concentration (MIC)” value in assay [1] lay in the range of 10 to 50 µg/mL; in assay [2], 0.156 to 0.391 µg/mL; in assay [4], 0.000391 to 0.0078 µg/mL. Further, the MIC in assay [3] lay in the range of 0.0625 to 0.078 µg/mL (≈ 0.106 to 0.132 µM).

For the compound `N=C(N)c1ccc(OCC(=O)NC2C(=O)N3C(C(=O)O)=C(CSc4nnc(-c5ccccc5)o4)CSC23)cc1` (stereo not shown) [Example 28, 3-[(5-5-phenyl-1,3,4-oxadiazole-2-yl)-thiomethyl]-7-(4-amidino-phenoxyacetamido)-Δ 3-cephem-4-carboxylic acid], the “Minimum inhibition concentration (MIC)” value in assay [1] is 10 to 50 µg/mL; in assay [2], 0.156 to 0.391 µg/mL. Also, the figures for the MIC in assay [3] and in assay [4] were 0.0196 to 0.0391 µg/mL (≈ 0.0346 to 0.069 µM) and 0.000391 to 0.0078 µg/mL (≈ 0.00069 to 0.0138 µM), respectively.

For the compound `O=C(COc1ccc(C2=NCCCN2)cc1)NC1C(=O)N2C(C(=O)O)=C(CSc3nnc(-c4ccccc4)s3)CSC12` (stereo not shown) [Example 50], the MIC in assay [1] fell in the range of 0.196 to 6.25 µg/mL (≈ 0.315 to 10 µM); in assay [2] it was 0.156 to 0.391 µg/mL (≈ 0.251 to 0.628 µM); in assay [3] it was 0.0196 to 0.0391 µg/mL (≈ 0.0315 to 0.0628 µM); in assay [4], 0.000391 to 0.0078 µg/mL (≈ 0.000628 to 0.0125 µM).

Take `CCCCCCNC(=N)c1ccc(OCC(=O)NC2C(=O)N3C(C(=O)O)=C(CSc4nnc(-c5ccccc5)o4)CSC23)cc1` (stereo not shown) [Example 39]: the MIC lay in the range of 10 to 50 µg/mL (≈ 15.4 to 76.8 µM) in assay [1], 0.5 to 1.25 µg/mL (≈ 0.768 to 1.92 µM) in assay [2], 0.0196 to 0.0391 µg/mL (≈ 0.0301 to 0.0601 µM) in assay [3] and 0.008 to 0.0156 µg/mL (≈ 0.0123 to 0.024 µM) in assay [4].

Turning to `N=C(N)c1ccc(OCC(=O)NC2C(=O)N3C(C(=O)O)=C(CSc4nc(-c5ccccc5)cs4)CSC23)cc1` (stereo not shown) [Example 27, 3-[(4-phenyl-1,3-thiazole-2-yl)-thiomethyl]-7-(4-amidinophenoxy-acetamido)-Δ 3-cephem-4-carboxylic acid], the MIC in assay [1] lay within 10 to 50 µg/mL (≈ 17.2 to 86 µM); in assay [2] it was 0.5 to 1.25 µg/mL (≈ 0.86 to 2.15 µM); in assay [3], 0.0625 to 0.078 µg/mL (≈ 0.107 to 0.134 µM); in assay [4], 0.000391 to 0.0078 µg/mL (≈ 0.000672 to 0.0134 µM).

As to `Cc1nnc(SCC2=C(C(=O)O)N3C(=O)C(NC(=O)COc4ccc(C(=N)N)cc4)C3SC2)s1` (stereo not shown) [Example 35, 3-[(5-methyl-1,3,4-thiadiazole-2-yl)-thiomethyl]-7-[4-amidinophenoxy-acetamido]-Δ 3-cephem-4-carboxylic acid hydrochloride], the MIC in assay [1] lay within 10 to 50 µg/mL; in assay [4], 0.000391 to 0.0078 µg/mL. Further, the “Minimum inhibition concentration (MIC)” value in assay [3] (Germ: Staphylococcus aureus SG 511, hydrochloride) was 0.0625 to 0.078 µg/mL.

Turning to `N=C(N)c1ccc(OCC(=O)NC2C(=O)N3C(C(=O)O)=C(CSc4nnc(N)s4)CSC23)cc1` (stereo not shown) [Example 49, 3-[(5-amino-1,3,4-thiadiazole-2-yl)-thiomethyl]-7-(4-amidinophenoxyacetamido)-Δ 3-cephem-4-carboxylic acid], the MIC in assay [1] was in the range of 10 to 50 µg/mL (≈ 19.2 to 95.9 µM); in assay [2], 0.5 to 1.25 µg/mL (≈ 0.959 to 2.4 µM); in assay [3] it was 0.0625 to 0.078 µg/mL (≈ 0.12 to 0.15 µM).
